Measurements reported in PubChem BioAssay AID248 (DTP/NCI, 2004).
Where “and” joins values, the source holds several entries; their conditions need not be identical. Equal values may be shown once. Inconclusive results and toxic doses are left out. Cut-off read from the data, not from the text of the source: active = T/C of 150% or more; inactive = T/C below 125%.

Tested on: L1210 leukemia ip in BDF1 mice, survival T/C
Assay: NCI In Vivo Anticancer Drug Screen. Data for tumor model L1210 Leukemia (intraperitoneal) in B6D2F1 (BDF1) mice
Conditions: higher = longer survival
How it was run: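 Value reflects the ratio of survival in compound-treated mice to survival in vehicle-treated controls, with both groups carrying the same transplanted tumor.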

Measured: T/C

O=NN(CCCl)C(=O)NC1CCCCC1
inactive: endpoint: mean survival time, dose: 9.3 mg/kg/injection, schedule: Q## X004 (ip), vehicle: carboxymethylcellulose (CMC) 112 % of control | endpoint: mean survival time, dose: 9.37 mg/kg/injection, schedule: Q01DX001 (ip), vehicle: saline 102 % of control | endpoint: mean survival time, dose: 10.0 mg/kg/injection, schedule: Q01DX001 (ip), vehicle: carboxymethylcellulose (CMC) 116 % of control | endpoint: mean survival time, dose: 10.0 mg/kg/injection, schedule: Q## X032 (ip), vehicle: carboxymethylcellulose (CMC) 122 % of control | endpoint: mean survival time, dose: 18.75 mg/kg/injection, schedule: Q01DX001 (ip), vehicle: saline 109 % of control | endpoint: mean survival time, dose: 25.0 mg/kg/injection, schedule: Q03HX008 (ip), vehicle: carboxymethylcellulose (CMC) 112 % of control | endpoint: mean survival time, dose: 32.0 mg/kg/injection, schedule: Q01DX005 (oral), vehicle: saline 121 % of control | endpoint: mean survival time, dose: 50.0 mg/kg/injection, schedule: Q01DX Z (ip), vehicle: carboxymethylcellulose (CMC) 118 % of control | endpoint: mean survival time, dose: 62.0 mg/kg/injection, schedule: Q01DX Z (ip), vehicle: carboxymethylcellulose (CMC) 92 % of control | endpoint: mean survival time, dose: 97.0 mg/kg/injection, schedule: Q01DX001 (oral), vehicle: carboxymethylcellulose (CMC) 95 % of control | endpoint: mean survival time, dose: 100.0 mg/kg/injection, schedule: Q01DX001 (ip), vehicle: saline 104 % of control | endpoint: mean survival time, dose: 100.0 mg/kg/injection, schedule: Q01DX001 (oral), vehicle: saline 95 % of control | endpoint: mean survival time, dose: 112.0 mg/kg/injection, schedule: Q## X008 (ip), vehicle: carboxymethylcellulose (CMC) 121 % of control | endpoint: mean survival time, dose: 112.0 mg/kg/injection, schedule: Q## X015 (ip), vehicle: carboxymethylcellulose (CMC) 119 % of control | endpoint: mean survival time, dose: 200.0 mg/kg/injection, schedule: Q01DX001 (ip), vehicle: Klucel (hydroxypropylcellulose) (HPC) 110 % of control | endpoint: mean survival time, dose: 200.0 mg/kg/injection, schedule: Q01DX001 (ip), vehicle: carboxymethylcellulose (CMC) 104 % of control | endpoint: mean survival time, dose: 400.0 mg/kg/injection, schedule: Q01DX001 (ip), vehicle: carboxymethylcellulose (CMC) 93 % of control | endpoint: median survival time, dose: 12.5 mg/kg/injection, schedule: Q01DX001 (ip), vehicle: saline with Tween-80 99 % of control and 100 % of control | endpoint: median survival time, dose: 25.0 mg/kg/injection, schedule: Q01DX001 (ip), vehicle: saline with Tween-80 100 % of control and 101 % of control | endpoint: median survival time, dose: 50.0 mg/kg/injection, schedule: Q01DX001 (ip), vehicle: saline with Tween-80 112 % of control and 113 % of control | endpoint: median survival time, dose: 200.0 mg/kg/injection, schedule: Q01DX001 (ip), vehicle: saline with Tween-80 112 % of control and 113 % of control
active: endpoint: mean survival time, dose: 9.0 mg/kg/injection, schedule: Q01DX003 (ip), vehicle: carboxymethylcellulose (CMC) 154 % of control | endpoint: mean survival time, dose: 10.0 mg/kg/injection, schedule: Q01DX001 (iv), vehicle: clinical formulation 160 % of control | endpoint: mean survival time, dose: 12.5 mg/kg/injection, schedule: Q01DX009 (ip), vehicle: Klucel (hydroxypropylcellulose) (HPC) 172 % of control | endpoint: mean survival time, dose: 12.5 mg/kg/injection, schedule: Q01DX Z (ip), vehicle: carboxymethylcellulose (CMC) 156 % of control | endpoint: mean survival time, dose: 12.5 mg/kg/injection, schedule: Q03HX024 (ip), vehicle: carboxymethylcellulose (CMC) 154 % of control | endpoint: mean survival time, dose: 15.0 mg/kg/injection, schedule: Q01DX001 (iv), vehicle: Klucel (hydroxypropylcellulose) (HPC) 152 % of control | endpoint: mean survival time, dose: 16.0 mg/kg/injection, schedule: Q01DX009 (ip), vehicle: saline with Tween-80 161 % of control | endpoint: mean survival time, dose: 16.0 mg/kg/injection, schedule: Q01DX Z (ip), vehicle: carboxymethylcellulose (CMC) 158 % of control | endpoint: mean survival time, dose: 16.0 mg/kg/injection, schedule: Q03HX003 (oral), vehicle: saline 161 % of control | endpoint: mean survival time, dose: 18.0 mg/kg/injection, schedule: Q01DX001 (ip), vehicle: carboxymethylcellulose (CMC) 159 % of control | endpoint: mean survival time, dose: 18.5 mg/kg/injection, schedule: Q01DX001 (ip), vehicle: carboxymethylcellulose (CMC) 153 % of control | endpoint: mean survival time, dose: 20.0 mg/kg/injection, schedule: Q01DX001 (ip), vehicle: carboxymethylcellulose (CMC) 160 % of control | endpoint: mean survival time, dose: 20.0 mg/kg/injection, schedule: Q04DX004 (ip), vehicle: Klucel (hydroxypropylcellulose) (HPC) 162 % of control | endpoint: mean survival time, dose: 22.0 mg/kg/injection, schedule: Q01DX001 (ip), vehicle: carboxymethylcellulose (CMC) 156 % of control | endpoint: mean survival time, dose: 22.0 mg/kg/injection, schedule: Q01DX001 (iv), vehicle: saline 165 % of control | endpoint: mean survival time, dose: 30.0 mg/kg/injection, schedule: Q01DX001 (ip), vehicle: saline 156 % of control | endpoint: mean survival time, dose: 50.0 mg/kg/injection, schedule: Q07DX Z (ip), vehicle: carboxymethylcellulose (CMC) 158 % of control | endpoint: mean survival time, dose: 50.0 mg/kg/injection, schedule: Q## X004 (ip), vehicle: carboxymethylcellulose (CMC) 160 % of control | endpoint: mean survival time, dose: 50.0 mg/kg/injection, schedule: Q## X015 (ip), vehicle: carboxymethylcellulose (CMC) 171 % of control | endpoint: mean survival time, dose: 75.0 mg/kg/injection, schedule: Q## X008 (ip), vehicle: carboxymethylcellulose (CMC) 163 % of control | endpoint: mean survival time, dose: 100.0 mg/kg/injection, schedule: Q01DX001 (ip), vehicle: carboxymethylcellulose (CMC) 164 % of control | endpoint: mean survival time, dose: 112.0 mg/kg/injection, schedule: Q01DX001 (ip), vehicle: carboxymethylcellulose (CMC) 164 % of control | endpoint: mean survival time, dose: 112.0 mg/kg/injection, schedule: Q## X001 (ip), vehicle: carboxymethylcellulose (CMC) 152 % of control | endpoint: mean survival time, dose: 200.0 mg/kg/injection, schedule: Q01DX001 (oral), vehicle: carboxymethylcellulose (CMC) 159 % of control | endpoint: median survival time, dose: 25.0 mg/kg/injection, schedule: Q01DX001 (oral), vehicle: Klucel (hydroxypropylcellulose) (HPC) 158 % of control
